From BindingDB's records for PubMed 35777718 (Wuxi Apptec, 2022)

Assay: Inhibition of Kir2.1 (unknown origin)

SMILES | IC50 [µM]
C[C@]1(CN2Cc3nc(-c4ccc(F)cc4)sc3C2)CN=C(N)O1 | > 13.3
C[C@]1(CN2Cc3nc(-c4ccc(F)cc4)sc3C2)Cn2cc([N+](=O)[O-])nc2O1 | > 40
